Measurements taken from ChEMBL document CHEMBL1201862, “PubChem BioAssay data set” (2004).
“And” between values parts separate entries of the source, which are not always exact repeats. Equal values may be shown once.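 How tested: cells in 96-well plates exposed to compound for 48 hours at five concentrations. At the GI50, growth is halved.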 The source made the active and inactive calls. Cut-off read from the data, not from the text of the source: active = GI50 up to about 1.1 µM and inactive = higher.

What was measured:
Assay in all cases: DTP human tumour cell line panel, 48 h
UACC-257 = system: UACC-257
MOLT-4 = system: MOLT-4
SF-268 = system: SF-268
ACHN = system: ACHN
CAKI-1 = system: CAKI-1
SNB-19 = system: SNB-19
DU-145 = system: DU-145
OVCAR-3 = system: OVCAR-3
SR = system: SR
MDA-N = system: MDA-N
RPMI-8226 = system: RPMI-8226
K562 = system: K562
HL-60 = system: HL-60
Malme-3M = system: Malme-3M
SF-295 = system: SF-295
IGROV-1 = system: IGROV-1
NCI-H522 = system: NCI-H522
KM12 = system: KM12
SNB-75 = system: SNB-75
SK-MEL-28 = system: SK-MEL-28

Structure (SMILES) | GI50 (UACC-257) | GI50 (MOLT-4) | GI50 (SF-268) | GI50 (ACHN) | GI50 (CAKI-1) | GI50 (SNB-19) | GI50 (DU-145) | GI50 (OVCAR-3) | GI50 (SR) | GI50 (MDA-N) | GI50 (RPMI-8226) | GI50 (K562) | GI50 (HL-60) | GI50 (Malme-3M) | GI50 (SF-295) | GI50 (IGROV-1) | GI50 (NCI-H522) | GI50 (KM12) | GI50 (SNB-75) | GI50 (SK-MEL-28)
COC(=O)C1=COC(C)C2CN3CCc4c([nH]c5cc(OC)c(OC)cc45)C3CC12 (stereo unspecified) | > 100 µM (inactive) | 35.5 µM (inactive) and 28.6 µM (inactive) | > 100 µM (inactive) and 65 µM (inactive) | 36.3 µM (inactive) and 31.3 µM (inactive) | > 100 µM (inactive) | 66.8 µM (inactive) and 75.3 µM (inactive) | > 100 µM (inactive) and 98.9 µM (inactive) | 58.3 µM (inactive) | 31 µM (inactive) and 58.6 µM (inactive) | 55.7 µM (inactive) | 27.9 µM (inactive) | 38.4 µM (inactive) and 37.8 µM (inactive) | 26.6 µM (inactive) and 29.9 µM (inactive) | > 100 µM (inactive) | 59.4 µM (inactive) and 56.1 µM (inactive) | – | – | – | – | –
C[C@@H]1C[C@H]2OC(=O)[C@@]3(C)CCC[C@@](C)([C@@H]23)[C@@]1(O)CCc1ccoc1 | > 95.7 µM (inactive) | 38 µM (inactive) | > 100 µM (inactive) | > 100 µM (inactive) | > 100 µM (inactive) | > 100 µM (inactive) | > 100 µM (inactive) | > 100 µM (inactive) | 44.5 µM (inactive) | > 100 µM (inactive) | 45.1 µM (inactive) | 42.2 µM (inactive) | 29.6 µM (inactive) | – | > 100 µM (inactive) | > 100 µM (inactive) | > 61.8 µM (inactive) | > 100 µM (inactive) | > 100 µM (inactive) | > 100 µM (inactive)
CC(=O)Nc1cc2cc(NS(=O)(=O)c3ccc(Cl)c(Cl)c3)ccc2oc1=O | > 100 µM (inactive) | 27.4 µM (inactive) | 26.2 µM (inactive) | 42 µM (inactive) | 20 µM (inactive) | 34.4 µM (inactive) | > 100 µM (inactive) | > 100 µM (inactive) | 33.9 µM (inactive) | 51.8 µM (inactive) | 40.3 µM (inactive) | 56.5 µM (inactive) | 43.5 µM (inactive) | – | 19.6 µM (inactive) | 75.9 µM (inactive) | 23.4 µM (inactive) | 25.1 µM (inactive) | – | 35 µM (inactive)
[N-]=[N+]=Nc1c(C=O)c(=O)n(-c2ccccc2)c2ccccc12 | 22.9 µM (inactive) | 2.63 µM (inactive) | 47.8 µM (inactive) | 19 µM (inactive) | 14 µM (inactive) | 57 µM (inactive) | 25.5 µM (inactive) | 16.1 µM (inactive) | 6.64 µM (inactive) | 37.8 µM (inactive) | > 10 µM (inactive) | 3.89 µM (inactive) | 52.4 µM (inactive) | 15.6 µM (inactive) | 75.5 µM (inactive) | 16.6 µM (inactive) | – | 54.5 µM (inactive) | 24.8 µM (inactive) | 16.9 µM (inactive)
Oc1ccc(/C=C/c2ccc3cccc(O)c3n2)cc1O | 10.5 µM (inactive) | 0.973 µM (active) | 6.5 µM (inactive) | 3.42 µM (inactive) | 4.98 µM (inactive) | 5.02 µM (inactive) | 2.79 µM (inactive) | 10.9 µM (inactive) | 3.22 µM (inactive) | 5.41 µM (inactive) | 0.692 µM (active) | 3.69 µM (inactive) | 1.96 µM (inactive) | – | 8.17 µM (inactive) | 1.44 µM (inactive) | – | 5.45 µM (inactive) | 4.74 µM (inactive) | 13 µM (inactive)
SCc1ccc(CS)s1 | > 100 µM (inactive) | > 100 µM (inactive) | > 100 µM (inactive) | – | – | > 100 µM (inactive) | > 100 µM (inactive) | > 100 µM (inactive) | > 100 µM (inactive) | > 100 µM (inactive) | – | > 100 µM (inactive) | > 100 µM (inactive) | – | > 100 µM (inactive) | > 100 µM (inactive) | > 100 µM (inactive) | > 100 µM (inactive) | 68.5 µM (inactive) | > 100 µM (inactive)
CC(=O)SCCC(NC(=S)Nc1ccccc1)P(=O)(Oc1ccccc1)Oc1ccccc1 (stereo unspecified) | > 100 µM (inactive) | > 100 µM (inactive) | > 100 µM (inactive) | > 100 µM (inactive) | > 100 µM (inactive) | > 100 µM (inactive) | > 100 µM (inactive) | > 100 µM (inactive) | > 100 µM (inactive) | > 100 µM (inactive) | – | > 100 µM (inactive) | > 100 µM (inactive) | > 100 µM (inactive) | > 100 µM (inactive) | > 100 µM (inactive) | > 100 µM (inactive) | > 100 µM (inactive) | > 100 µM (inactive) | > 100 µM (inactive)
O=Cc1ccc(Oc2c3ccccc3nc3ccccc23)cc1 | 0.346 µM (active) | < 0.01 µM (active) | 4.5 µM (inactive) | 3.61 µM (inactive) | 7.05 µM (inactive) | 16.4 µM (inactive) | 3.84 µM (inactive) | 10.9 µM (inactive) | 0.053 µM (active) | 3.51 µM (inactive) | 2.39 µM (inactive) | – | < 0.01 µM (active) | 11.8 µM (inactive) | 19.6 µM (inactive) | – | – | 11.1 µM (inactive) | 15.5 µM (inactive) | 12.6 µM (inactive)
